Experimental data from US20120029187A1, “HALOALKYLSULFONANILIDE DERIVATIVE” (Nissan Chemical Industries, Ltd., priority 2009, published 2012).

Legend:
Format in all cases: in vivo
ducksalad [1] = assay: Test Example 1: herbicidal effects in preemergence treatment under submerged conditions; details: dose 2.52 g/a
In short: (§1)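 Score 0–5 by mortality (5: ≥90%; 0: <5%), read 3 weeks post-application. Paddy-type cups: alluvial soil under 4 cm water, weeds seeded plus transplanted 2.5-leaf rice; diluted EC dosed onto water surface same day as sowing, g/a basis; greenhouse 25 to 30° C.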

barnyardgrass [2] = assay: as above; details: dose 2.52 g/a
In short: as §1

bulrush [3] = assay: as above; details: dose 2.52 g/a
In short: as §1

redroot pigweed [4] = assay: Test Example 3: herbicidal effects in soil treatment; details: dose 6.3 g/a
In short: (§2)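 Seeds were sown in sterilized diluvial soil and covered with about 1.5 cm of soil. Compounds, formulated as emulsifiable concentrates and diluted with water, were sprayed evenly over the soil surface at set doses in g/a. Herbicidal effect was scored on a rating scale three weeks later.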

barnyardgrass [5] = assay: as above; details: dose 6.3 g/a
In short: as §2

Italian ryegrass [6] = assay: as above; details: dose 6.3 g/a
In short: as §2

large crabgrass [7] = assay: as above; details: dose 6.3 g/a
In short: as §2

water foxtail [8] = assay: as above; details: dose 6.3 g/a
In short: as §2

common chickweed [9] = assay: as above; details: dose 6.3 g/a
In short: as §2

posumbu knotweed [10] = assay: as above; details: dose 6.3 g/a
In short: as §2

wild oat [11] = assay: as above; details: dose 6.3 g/a
In short: as §2

common ragweed [12] = assay: as above; details: dose 6.3 g/a
In short: as §2

velvetleaf [13] = assay: as above; details: dose 6.3 g/a
In short: as §2

giant foxtail [14] = assay: as above; details: dose 6.3 g/a
In short: as §2

common lambsquater [15] = assay: as above; details: dose 6.3 g/a
In short: as §2

ducksalad [16] = assay: Test Example 2: herbicidal effects during the vegetation period under submerged conditions; details: treatment during the vegetation period under submerged conditions; dose 2.52 g/a
In short: (§3)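 Barnyardgrass, bulrush and ducksalad were co-sown in alluvial soil flooded to 4 cm and grown in a greenhouse at 25 to 30° C. At the 1- or 2-leaf stage, water-diluted emulsifiable concentrates went onto the water surface at set doses (g/a). Herbicidal effect was scored three weeks later on a graded scale.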

barnyardgrass [17] = assay: as above; details: treatment during the vegetation period under submerged conditions; dose 2.52 g/a
In short: as §3

bulrush [18] = assay: as above; details: treatment during the vegetation period under submerged conditions; dose 2.52 g/a
In short: as §3

redroot pigweed [19] = assay: Test Example 4: herbicidal effect in foliage treatment; details: dose 6.3 g/a, three weeks after application
In short: (§4)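 Seeds were spot-sown in boxes of sterilized diluvial soil and raised in a greenhouse (25 to 30° C) for 14 days before a single foliar application. Compounds were applied as emulsifiable concentrates diluted with water, at predetermined doses in g/a. Injury was graded three weeks post-spray.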

barnyardgrass [20] = assay: as above; details: dose 6.3 g/a, three weeks after application
In short: as §4

Italian ryegrass [21] = assay: as above; details: dose 6.3 g/a, three weeks after application
In short: as §4

large crabgrass [22] = assay: as above; details: dose 6.3 g/a, three weeks after application
In short: as §4

beadstraw = assay: as above; details: dose 6.3 g/a, three weeks after application
In short: as §4

water foxtail [23] = assay: as above; details: dose 6.3 g/a, three weeks after application
In short: as §4

common chickweed [24] = assay: as above; details: dose 6.3 g/a, three weeks after application
In short: as §4

posumbu knotweed [25] = assay: as above; details: dose 6.3 g/a, three weeks after application
In short: as §4

wild oat [26] = assay: as above; details: dose 6.3 g/a, three weeks after application
In short: as §4

common ragweed [27] = assay: as above; details: dose 6.3 g/a, three weeks after application
In short: as §4

velvetleaf [28] = assay: as above; details: dose 6.3 g/a, three weeks after application
In short: as §4

giant foxtail [29] = assay: as above; details: dose 6.3 g/a, three weeks after application
In short: as §4

common lambsquater [30] = assay: as above; details: dose 6.3 g/a, three weeks after application
In short: as §4

| SMILES | C: ducksalad, herbicidal effect (evaluation scale 0-5) (ducksalad [1]) | A: barnyardgrass, herbicidal effect (evaluation scale 0-5) (barnyardgrass [2]) | B: bulrush, herbicidal effect (evaluation scale 0-5) (bulrush [3]) | K: redroot pigweed, herbicidal effect (evaluation scale 0-5) (redroot pigweed [4]) | A: barnyardgrass, herbicidal effect (evaluation scale 0-5) (barnyardgrass [5]) | H: Italian ryegrass, herbicidal effect (evaluation scale 0-5) (Italian ryegrass [6]) | D: large crabgrass, herbicidal effect (evaluation scale 0-5) (large crabgrass [7]) | G: water foxtail, herbicidal effect (evaluation scale 0-5) (water foxtail [8]) | N: common chickweed, herbicidal effect (evaluation scale 0-5) (common chickweed [9]) | M: posumbu knotweed, herbicidal effect (evaluation scale 0-5) (posumbu knotweed [10]) | F: wild oat, herbicidal effect (evaluation scale 0-5) (wild oat [11]) | J: common ragweed, herbicidal effect (evaluation scale 0-5) (common ragweed [12]) | I: velvetleaf, herbicidal effect (evaluation scale 0-5) (velvetleaf [13]) | E: giant foxtail, herbicidal effect (evaluation scale 0-5) (giant foxtail [14]) | L: common lambsquater, herbicidal effect (evaluation scale 0-5) (common lambsquater [15]) | C: ducksalad, herbicidal effect (evaluation scale 0-5) (ducksalad [16]) | B: bulrush, herbicidal effect (evaluation scale 0-5) (bulrush [18]) | K: redroot pigweed, herbicidal effect (redroot pigweed [19]) | A: barnyardgrass, herbicidal effect (barnyardgrass [20]) | H: Italian ryegrass, herbicidal effect (Italian ryegrass [21]) | other results |
| --- | --- | --- | --- | --- | --- | --- | --- | --- | --- | --- | --- | --- | --- | --- | --- | --- | --- | --- | --- | --- | --- |
| O=C1COCCN1Cc1ccccc1NS(=O)(=O)C(F)(F)F [Compound I-1, 4-(2-trifluoromethanesulfonylaminobenzyl)-1,4-oxazinan-3-one] | 5 (mortality of 90% or above (nearly complete death)) | 5 (mortality of 90% or above (nearly complete death)) | 5 (mortality of 90% or above (nearly complete death)) | 5 (mortality of 90% or above (nearly complete death)) | 5 (mortality of 90% or above (nearly complete death)) | 5 (mortality of 90% or above (nearly complete death)) | 5 (mortality of 90% or above (nearly complete death)) | 5 (mortality of 90% or above (nearly complete death)) | 5 (mortality of 90% or above (nearly complete death)) | 5 (mortality of 90% or above (nearly complete death)) | 4 (mortality of at least 70% and less than 90%) | 4 (mortality of at least 70% and less than 90%) | 5 (mortality of 90% or above (nearly complete death)) | 5 (mortality of 90% or above (nearly complete death)) | 5 (mortality of 90% or above (nearly complete death)) | 5 (mortality of 90% or above (nearly complete death)) | 5 (mortality of 90% or above (nearly complete death)) | 3 (mortality of at least 40% and less than 70%) | 5 (mortality of 90% or above (nearly complete death)) | 5 (mortality of 90% or above (nearly complete death)) | A: barnyardgrass, herbicidal effect (evaluation scale 0-5) (barnyardgrass [17]): 5 (mortality of 90% or above (nearly complete death)); D: large crabgrass, herbicidal effect (large crabgrass [22]): 5 (mortality of 90% or above (nearly complete death)); O: beadstraw, herbicidal effect (beadstraw): 5 (mortality of 90% or above (nearly complete death)); G: water foxtail, herbicidal effect (water foxtail [23]): 5 (mortality of 90% or above (nearly complete death)); N: common chickweed, herbicidal effect (common chickweed [24]): 4 (mortality of at least 70% and less than 90%); M: posumbu knotweed, herbicidal effect (posumbu knotweed [25]): 5 (mortality of 90% or above (nearly complete death)); F: wild oat, herbicidal effect (wild oat [26]): 3 (mortality of at least 40% and less than 70%); J: common ragweed, herbicidal effect (common ragweed [27]): 4 (mortality of at least 70% and less than 90%); I: velvetleaf, herbicidal effect (velvetleaf [28]): 5 (mortality of 90% or above (nearly complete death)); E: giant foxtail, herbicidal effect (giant foxtail [29]): 5 (mortality of 90% or above (nearly complete death)); L: common lambsquater, herbicidal effect (common lambsquater [30]): 5 (mortality of 90% or above (nearly complete death)) |
| O=C1CSCCN1Cc1ccccc1NS(=O)(=O)C(F)(F)F [Compound I-17, 4-(2-trifluoromethanesulfonylaminobenzyl)-1,4-thiazinan-3-one] | 5 (mortality of 90% or above (nearly complete death)) | 4 (mortality of at least 70% and less than 90%) | 5 (mortality of 90% or above (nearly complete death)) | 3 (mortality of at least 40% and less than 70%) | 5 (mortality of 90% or above (nearly complete death)) | 3 (mortality of at least 40% and less than 70%) | 5 (mortality of 90% or above (nearly complete death)) | 5 (mortality of 90% or above (nearly complete death)) | 5 (mortality of 90% or above (nearly complete death)) | 2 (mortality of at least 20% and less than 40%) | 0 (mortality of less than 5% (almost ineffective)) | 4 (mortality of at least 70% and less than 90%) | 1 (mortality of at least 5% and less than 20%) | 3 (mortality of at least 40% and less than 70%) | 5 (mortality of 90% or above (nearly complete death)) | 4 (mortality of at least 70% and less than 90%) | 5 (mortality of 90% or above (nearly complete death)) | 4 (mortality of at least 70% and less than 90%) | 4 (mortality of at least 70% and less than 90%) | 3 (mortality of at least 40% and less than 70%) | D: large crabgrass, herbicidal effect (large crabgrass [22]): 5 (mortality of 90% or above (nearly complete death)); O: beadstraw, herbicidal effect (beadstraw): 5 (mortality of 90% or above (nearly complete death)); G: water foxtail, herbicidal effect (water foxtail [23]): 5 (mortality of 90% or above (nearly complete death)); N: common chickweed, herbicidal effect (common chickweed [24]): 4 (mortality of at least 70% and less than 90%); M: posumbu knotweed, herbicidal effect (posumbu knotweed [25]): 3 (mortality of at least 40% and less than 70%); F: wild oat, herbicidal effect (wild oat [26]): 1 (mortality of at least 5% and less than 20%); J: common ragweed, herbicidal effect (common ragweed [27]): 4 (mortality of at least 70% and less than 90%); I: velvetleaf, herbicidal effect (velvetleaf [28]): 4 (mortality of at least 70% and less than 90%); E: giant foxtail, herbicidal effect (giant foxtail [29]): 3 (mortality of at least 40% and less than 70%); L: common lambsquater, herbicidal effect (common lambsquater [30]): 5 (mortality of 90% or above (nearly complete death)) |
